According to publication PMC8658773, “Two New Isoprenoid Flavonoids from Sophora flavescens with Antioxidant and Cytotoxic Activities” (Molecules, 2021):

Tests used:
[1] = PTIO free radical scavenging assay; type: biochemical; conditions: for PTIO radical scavenging activity (inhibition rate): 8 μg/mL, SD in brackets
Method: PTIO free radical scavenging was also performed following previous reports with some modification. VC was used as the positive control. PTIO radicals were dissolved with phosphate buffer (PBS) (pH 7.4, 50 mM) with a concentration of 0.05 mg/mL. Then, the samples (40 µL, 40 µg/mL) and PTIO solution (160 µL) were added into 96-well plates (as the value of Ai). After being thoroughly mixed, the reaction solution was incubated at 37 °C in a water-bath for 2 h. Then, the absorbance was measured at 557 nm. PTIO free radical scavenging was calculated using the above equation. (40 µL PBS with 160 µL PTIO as A0, 40 µL compounds with 160 µL PBS as Aj).

MCF7 cells = assay: Cytotoxic activity (MTS assay), MCF7; type: cell-based, human; conditions: Homo sapiens, MCF7; 10 µM; SD in brackets; read-out: MCF-7 cell inhibitory activity (Table S6)
HepG2 cells = assay: Cytotoxic activity (MTS assay), HepG2; type: cell-based, human; conditions: Homo sapiens, HepG2, 10 µM; SD in brackets; read-out: HepG2 cell inhibitory activity (Table S4)
A549 cells = assay: Cytotoxic activity (MTS assay), A549; type: cell-based, human; conditions: Homo sapiens, A549; 10 µM; SD in brackets; read-out: A549 cell inhibitory activity (Table S5)
[2] = DPPH free radical scavenging assay; type: biochemical; conditions: for DPPH radical scavenging activity (inhibition rate): 20 μg/mL, SD in brackets
Method: The in vitro antioxidant activity tests were conducted according to previous reports. Among them, the DPPH free radical scavenging assay was slightly modified. Briefly, the DPPH material was precisely weighed, ethanol solution was added to obtain a concentration of 0.1 mmol/L (to use immediately, or store in the dark). Then, the compounds (100 µL, 40 µg/mL) with DPPH solution (100 µL) (Ai) were added to 96-well plates and incubated for 30 min at room temperature. Subsequently, the activity was measured using the Thermo Scientific Varioskan LUX ([…], VL0L00D0, USA), with an absorbance of 570 nm. Vitamin C (VC) (40 µg/mL) was used as the positive control.

[3] = ABTS free radical scavenging assay; type: biochemical; conditions: for ABTS radical scavenging activity (inhibition rate): 20 μg/mL, SD in brackets
Method: The third assay, the ABTS free radical scavenging screen was performed by previous experiments with slight changes. First, we needed to prepare for the ABTS^+ solution. […] Then, they were mixed with equal volume at room temperature and kept away from light for 12 h, the mixed solution was diluted with ethanol until the absorbance of […]. Thus, the ABTS^+ solution was obtained. Furthermore, the compounds (100 µL, 40 µg/mL) with ABTS^+ solution (100 µL) were also added to the 96-well plates (as the value of Ai) and were interacted for 10 min at room temperature in the dark, then the absorbance at 734 nm was measured. VC was used as the positive control. Antioxidant capacity was calculated according to the first formula (the value of 100 µL ethanol with 100 µL ABTS^+ solution as A0, the value of 100 µL compounds with 100 µL ethanol as Aj). All experiments were carried out in triplicate.

LO2 cells = assay: Cytotoxic activity (MTS assay), LO2 normal cells; type: cell-based, human; conditions: Homo sapiens, L02; 10 µM; SD in brackets; read-out: LO2 cell inhibitory activity (Table S7)

Row | ABTS radical scavenging IC50 [3] [mg/L] | PTIO radical scavenging IC50 [1] [mg/L] | DPPH radical scavenging IC50 [2] [mg/L] | SMILES | PTIO radical scavenging activity (inhibition rate) [1] | inhibition at 10 µM (MCF7 cells) [%] | inhibition at 10 µM (HepG2 cells) [%] | inhibition at 10 µM (A549 cells) [%] | DPPH radical scavenging activity (inhibition rate) [2] | ABTS radical scavenging activity (inhibition rate) [3] | inhibition at 10 µM (LO2 cells) [%]
1 | – | – | – | C=C(C)C(CCC(C)(C)O)Cc1cc(O)c(C(=O)/C=C/c2ccc(O)cc2O)c(OC)c1O (stereo not shown) [Compound 5, kuraridinol] | 37.7% (1.8%) | 7.4 | 5.6 | -0.2 | 29.1% (8.7%) | 75.7% (1.5%) | -7.2
2 | 3.52 | – | – | C=C(C)[C@H](CC=C(C)C)Cc1c(O)cc(OC)c(C(=O)/C=C/c2ccc(O)cc2O)c1O [Compound 6, kuraridine] | 40.6% (2.2%) | 15 | 0.9 | 2 | 41.9% (5.6%) | – | -0.2
3 | – | – | – | COc1cc(O)c(CC=C(C)C)c(O)c1C(=O)/C=C/c1ccc(O)cc1 [Compound 7, xanthohumol] | 40.3% (1.4%) | 11.7 | 10.4 | 16.4 | 34.7% (1.9%) | 87.9% (2.0%) | 13.9
4 | – | – | – | O=C(/C=C/c1ccc(O)cc1)c1ccc(O)cc1O [Compound 8, isoliquiritigenin] | – | 7.2 | 1.7 | -5.7 | – | – | -2.1
5 | 3.72 | – | – | CC(C)=CCC(Cc1c(O)cc(O)c2c1OC(c1ccc(O)cc1O)CC2=O)C(C)CO (stereo not shown) [Compound 9, kushenol Q] | 36.7% (0.8%) | 4.5 | 3.5 | -10.9 | 30.4% (5.4%) | – | 5.3
6 | – | – | – | CC(C)=CCc1c(O)cc(O)c2c1OC(c1ccc(O)cc1)CC2=O (stereo not shown) [Compound 10, sophoraflavanone B] | 38.6% (1.3%) | 7.7 | 9.3 | 8 | 32.2% (1.9%) | 88.0% (2.1%) | 4.7
7 | – | – | – | O=C1C[C@@H](c2ccc(O)cc2)Oc2cc(O)cc(O)c21 [Compound 11, naringenin] | 37.8% (2.2%) | 0.7 | 3.6 | 14.7 | 24.5% (3.9%) | 55.4% (2.2%) | 5.8
8 | 1.31 | – | – | C=C(C)[C@H](CCC(C)(C)O)Cc1c(O)cc(OC)c2c1O[C@H](c1ccc(O)cc1O)CC2=O [Compound 12, kurarinol] | 37.5% (1.7%) | 4.8 | 0.9 | 37 | 30.8% (1.9%) | – | 11.4
9 | 2.91 | 5.51 | 3.52 | COc1cc(O)c(CC=C(C)C)c2oc(-c3ccc(O)cc3)c(O)c(=O)c12 [Compound 14, sophoflavescenol] | 55.0% (9.4%) | 2.8 | 11.4 | 6.9 | – | – | 5.5
10 | 1.91 | 2.70 | 2.42 | CC(C)=CCc1c(O)cc(O)c2c(=O)c(O)c(-c3ccc(O)cc3)oc12 [Compound 15, noranhyoicaritin] | 68.0% (8.1%) | 5.8 | 8.8 | 13.4 | – | – | 7.7
11 | 2.91 | – | – | COc1cc(O)c2c(=O)c(-c3ccc(O)c(OC)c3)coc2c1 [Compound 17, 7,3′-di-O-methyl] | 38.9% (2.4%) | 5.3 | 8.7 | 40.9 | 42.0% (1.4%) | – | 1.1
12 | – | – | – | O=c1c(-c2ccc(O)cc2)coc2cc(O)cc(O)c12 [Compound 18, genistein] | 35.8% (2.0%) | 4.3 | 1 | 6.6 | 28.0% (6.2%) | 69.0% (1.4%) | 5
13 | – | – | – | COc1ccc(-c2coc3cc(O)ccc3c2=O)cc1O [Compound 19, calycosin] | 37.0% (0.7%) | – | 4.3 | 6.4 | 25.6% (1.1%) | 51.3% (2.4%) | 16.6
14 | – | – | – | COc1ccc(-c2coc3cc(O)ccc3c2=O)cc1 [Compound 20, formononetin] | 36.2% (2.0%) | 8.7 | 1.4 | -6.2 | 20.2% (1.0%) | 23.3% (0.9%) | 5.8
15 | – | – | – | COc1ccc(-c2coc3cc(O)cc(O)c3c2=O)cc1 [Compound 21, biochanin A] | 37.9% (0.6%) | 1 | 7.1 | 8.7 | 46.8% (1.8%) | 76.4% (1.3%) | 5.8
16 | – | – | – | O=c1cc(-c2ccc(O)cc2)oc2cccc(O)c12 [Compound 22, 5,4′-dihydroxyflavone] | 39.4% (1.0%) | 9 | 0.6 | 29.7 | 34.6% (3.4%) | 76.3% (4.7%) | -4.6
17 | 1.51 | – | 0.90 | O=c1cc(-c2ccc(O)c(O)c2)oc2cc(O)cc(O)c12 [Compound 23, luteolin] | 43.3% (2.0%) | -4.7 | 1.1 | 41.3 | – | – | 19.8
18 | – | – | – | O=c1ccc2ccc(O)cc2o1 [Compound 24, 7-hydroxycoumarin] | 36.6% (3.1%) | 5.7 | – | 21.4 | 25.2% (3.7%) | 16.8% (3.2%) | -0.3
19 | – | – | 0.80 | O=c1ccc2ccc(O)c(O)c2o1 [Compound 25, 7,8-dihydroxycoumarin] | 46.3% (4.8%) | 4.8 | 8.5 | 32.4 | – | 97.8% (1.8%) | 8.6
20 | – | – | – | O=C(O)c1ccc(O)cc1O [Compound 27, b-resorcylic acid] | – | 14.1 | 1.9 | 22.8 | 23.1% (2.5%) | 63.4% (1.4%) | 1.9
21 | – | – | – | O=C1O[C@H]([C@@H](O)CO)C(O)=C1O [VC, vitamin C, reference compound] | – | – | – | – | 97% | – | –

Row | SMILES | ABTS radical scavenging IC50 [3] [mg/L] | PTIO radical scavenging IC50 [1] [mg/L] | DPPH radical scavenging IC50 [2] [mg/L] | PTIO radical scavenging activity (inhibition rate) [1] | inhibition at 10 µM (MCF7 cells) [%] | inhibition at 10 µM (HepG2 cells) [%] | inhibition at 10 µM (A549 cells) [%] | DPPH radical scavenging activity (inhibition rate) [2] | ABTS radical scavenging activity (inhibition rate) [3] | inhibition at 10 µM (LO2 cells) [%]
22 | O=c1c(O)c(-c2ccc(O)c(O)c2)oc2cc(O)cc(O)c12 [Compound 16, quercetin] | 0.90 | 4.71 | 1.11 | 62.0% (2.2%) | 11.9 | 4.6 | 12.1 | – | – | 9.8
